Results on seven compounds are retold here after the supplement of paper PMC11061612.

Holding throughout (experiment): Bliss excess, mean over the matrix (fraction); higher = more synergy
Experiment [1] has as its system MSTO-211H (Mesothelioma). Put shortly: (§1)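 After 24 hours at 37°C and 5% CO2 in 1536-well plates, cells in DMEM/F12 or RPMI plus 10% FBS received two-drug dose matrices for 72 hours. Viability came from CellTiter-Glo 2.0 luminescence and was scaled as inhibition, anchored at 0 by vehicle wells and at 1 by blank wells. Combination Emax is taken as the second-highest inhibition in the matrix, and Bliss excess as the observed combination effect less EA + EB − EA·EB, with EA and EB the single-agent effects.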

Experiment [2] relates to H4 (Low Grade Glioma). Put shortly:
as §1

Experiment [3] concerns SNU-61 (Colorectal Carcinoma). The essentials: as §1
Experiment [4] concerns EFM-192A (Breast Carcinoma). The essentials: as §1
For experiment [5], the system named is 647-V (Bladder Carcinoma). The essentials:
as §1

Experiment [6] concerns U-118-MG (Low Grade Glioma). Put shortly: as §1
Experiment [7] has as its system A172 (Glioblastoma). The essentials:
as §1

In experiment [8] the test system is YT (Other Blood Carcinomas). The essentials: as §1
The test system of experiment [9] is KG-1 (Acute Myeloid Leukemia). The essentials:
as §1

In experiment [10] the test system is PA-TU-8902 (Pancreatic Carcinoma). The essentials: as §1
In experiment [11] the test system is HuO9 (Osteosarcoma). Put shortly:
as §1

The subject of experiment [12] is TYK-nu (Ovarian Carcinoma). The essentials: as §1
Experiment [13] deals with SW948 (Colorectal Carcinoma). Put shortly:
as §1

Experiment [14] concerns EW-22 (Ewing's Sarcoma). Put shortly: as §1
Experiment [15] concerns WSU-DLCL2 (B-Cell Non-Hodgkin's Lymphoma). Put shortly: as §1
For experiment [16], the system named is SKN-3 (Head and Neck Carcinoma). The essentials: as §1
Experiment [17] relates to D-392MG (Glioblastoma). The essentials: as §1
Experiment [18] has as its system NOMO-1 (Acute Myeloid Leukemia). The essentials: as §1
Experiment [19] relates to SLVL (B-Cell Non-Hodgkin's Lymphoma). Put shortly: as §1
Experiment [20] concerns SW48 (Colorectal Carcinoma). Put shortly: as §1

With `COc1cccc(OCCCN)c1-c1cc(Nc2cnc(C#N)cn2)n[nH]1` [Prexasertib] + C=CCn1c(=O)c2cnc(Nc3ccc(N4CCN(C)CC4)cc3)nc2n1-c1cccc(C(C)(C)O)n1 [AZD1775] (first compound max 1 µM, partner max 1 µM), the Bliss excess in experiment [1] was 0.0083; in experiment [2], 0.0726; in experiment [3] it was -0.0124; in experiment [4], 0.0662; in [5] it was 0.233; in [6], 0.0225. In addition, the Bliss excess in experiment [7] is 0.142; in experiment [8], -0.0086; in experiment [9], 0.0038; in experiment [10], 0.0716; in experiment [11], 0.109; in [12], 0.0459. For the same compound, the Bliss excess in experiment [13] turned out to be 0.0608; in experiment [14] it was 0.223; in experiment [15] it was 0.138; in [16], 0.119; in experiment [17] it was 0.109; in experiment [18] it was 0.0539. For the same compound, the Bliss excess in [19] is 0.0481; in experiment [20], 0.1.

Take `CC1(C)CCC(CN2CCN(c3ccc(C(=O)NS(=O)(=O)c4ccc(NCC5CCOCC5)c([N+](=O)[O-])c4)c(Oc4cnc5[nH]ccc5c4)c3)CC2)=C(c2ccc(Cl)cc2)C1` [Venetoclax] + CCN(CCO)CCCOc1ccc2c(Nc3cc(CC(=O)Nc4cccc(F)c4)[nH]n3)ncnc2c1 [AZD2811] (first compound max 1 µM, 7x7, partner max 1 µM): the Bliss excess in experiment [1] was -0.0066; in [2], 0.0007; in [3], -0.0084; in [4], 0.0097; in [5] it was 0.0533; in experiment [6] it was -0.0032. In addition, the Bliss excess was -0.0296 in experiment [7]; -0.0328 in experiment [8]; 0.0766 in [9]; -0.0417 in [10]; 0.0203 in experiment [11]; -0.0266 in experiment [12]. In addition, the Bliss excess in [13] was -0.0229; in experiment [14], 0.0583; in experiment [15] it was 0.301; in experiment [16], -0.0167; in experiment [17] it was -0.0351; in experiment [18], 0.182. For the same compound, the Bliss excess in experiment [19] is 0.0685; in experiment [20], -0.0071.

For `NC1(C(=O)N[C@@H](CCO)c2ccc(Cl)cc2)CCN(c2ncnc3[nH]ccc23)CC1` [Capivasertib] + CCN(CCO)CCCOc1ccc2c(Nc3cc(CC(=O)Nc4cccc(F)c4)[nH]n3)ncnc2c1 [AZD2811] (first compound max 10 µM, 7x7, partner max 1 µM), the Bliss excess was -0.0073 in experiment [1]; -0.0124 in experiment [2]; -0.0435 in experiment [3]; -0.0053 in experiment [4]; -0.0332 in [5]; -0.0475 in [6]. Also, the Bliss excess in experiment [7] is -0.0079; in experiment [8] it was 0.002; in [9], -0.0204; in experiment [10], -0.0381; in experiment [11], 0.0135; in [12], -0.0351. In addition, the Bliss excess in experiment [13] is -0.0161; in experiment [14], -0.0366; in experiment [15], 0.0415; in experiment [16], -0.0524; in experiment [17], -0.0265; in experiment [18] it was -0.0085. In addition, the Bliss excess in [19] is -0.0608; in experiment [20], 0.0146.

Take `COc1nnc2ccc(N3CCC(c4ccc(OCCN5CCN(C)C(=O)[C@H]5C)cc4)CC3)nn12` [AZD5153] + C=CCn1c(=O)c2cnc(Nc3ccc(N4CCN(C)CC4)cc3)nc2n1-c1cccc(C(C)(C)O)n1 [AZD1775] (first compound max 1 µM, partner max 1 µM): the Bliss excess in experiment [1] was -0.121; in experiment [2] it was -0.0056; in [3], -0.0041; in experiment [4], -0.0138; in experiment [5] it was -0.0448; in [6], -0.0235. The Bliss excess in experiment [7] is -0.0521; in [8], -0.0842; in experiment [9], 0.004; in [10], 0.0421; in experiment [11], -0.035; in experiment [12], -0.04. Besides, the Bliss excess is -0.11 in experiment [13]; 0.0427 in [14]; -0.0085 in [15]; -0.0342 in [16]; -0.0797 in [17]; -0.0364 in experiment [18]. Besides, the values for the Bliss excess in [19] and in [20] were -0.142 and -0.0699, respectively.

Consider `Cc1c2c(nn1C)CSCc1cc(n(C)n1)CSc1cc(c3ccccc3c1)OCCCc1c(C(=O)O)n(C)c3c-2c(Cl)ccc13` [AZD5991] + C=CCn1c(=O)c2cnc(Nc3ccc(N4CCN(C)CC4)cc3)nc2n1-c1cccc(C(C)(C)O)n1 [AZD1775] (first compound max 1 µM, partner max 1 µM), for which the Bliss excess in experiment [1] is 0.0284; in experiment [2], -0.042; in experiment [3] it was -0.0118; in [4], -0.0297; in experiment [5], 0.059; in [6], -0.0014. Also, the Bliss excess in experiment [7] is 0.0736; in experiment [8], -0.0725; in experiment [9], 0.0391; in experiment [10] it was -0.0326; in experiment [11], -0.0292; in experiment [12], 0.0279. The Bliss excess is -0.13 in experiment [13]; 0.0756 in experiment [14]; -0.0245 in [15]; 0.0116 in [16]; 0.116 in experiment [17]; -0.01 in [18]. The values for the Bliss excess in [19] and in experiment [20] were -0.0346 and -0.0318, respectively.

As to `CC1(C)CCC(CN2CCN(c3ccc(C(=O)NS(=O)(=O)c4ccc(NCC5CCOCC5)c([N+](=O)[O-])c4)c(Oc4cnc5[nH]ccc5c4)c3)CC2)=C(c2ccc(Cl)cc2)C1` [Venetoclax] + Cn1cnc2c(F)c(Nc3ccc(Br)cc3Cl)c(C(=O)NOCCO)cc21 [Selumetinib] (first compound max 1 µM, 7x7, partner max 3 µM), the Bliss excess in experiment [1] is -0.0393; in experiment [2], 0.006; in experiment [3] it was 0.0136; in experiment [4], -0.0245; in experiment [5], -0.0064; in experiment [6] it was -0.0336. Also, the Bliss excess in experiment [7] was -0.0176; in [8], 0.0297; in experiment [9], 0.0735; in experiment [10], -0.0178; in [11] it was -0.0173; in experiment [12], -0.0594. The Bliss excess in [13] was -0.0505; in [14], -0.0233; in [15], 0.0196; in experiment [16] it was 0.019; in [17] it was -0.0331; in experiment [18], 0.0999. For the same compound, the results for the Bliss excess in [19] and in [20] were 0.0299 and 0.0113, respectively.

As for `Cc1cc2ncnn2cc1Nc1ncc2c(n1)n(C1CCOCC1)c(=O)n2C` [AZD7648] + CCN(CCO)CCCOc1ccc2c(Nc3cc(CC(=O)Nc4cccc(F)c4)[nH]n3)ncnc2c1 [AZD2811] (first compound max 10 µM, 7x7, partner max 1 µM), the Bliss excess was 0.0509 in experiment [1]; 0.006 in experiment [2]; -0.0383 in experiment [3]; -0.0175 in [4]; 0.0618 in experiment [5]; 0.0172 in experiment [6]. For the same compound, the Bliss excess was 0.0537 in experiment [7]; 0.0407 in experiment [8]; 0.0351 in experiment [9]; 0.0315 in experiment [10]; 0.051 in [11]; 0.0625 in [12]. The Bliss excess was -0.0979 in [13]; -0.0261 in experiment [14]; 0.127 in [15]; -0.0037 in experiment [16]; -0.0108 in [17]; 0.131 in experiment [18]. For the same compound, the values for the Bliss excess in [19] and in experiment [20] were 0.0756 and -0.073, respectively.
